Data published in patent US9452196B2, “Pharmaceutical composition for treating medical conditions and a method for treating alimentary disorders and related diseases” (SOCIEDADE BENEFICENTE DE SENHORAS HOSPITAL SIRIO LIBANES, priority 2009, dated 2016).
Where two headings read alike, the source gives them in different places.

Tests used:
CB1 receptor [1] = biological target: T1, CB1 receptor (Homo sapiens, UniProt P21554); assay type: biochemical; settings: for percentage of activity as compared to the control group: CB1
T1 sequence (P21554 whole entry): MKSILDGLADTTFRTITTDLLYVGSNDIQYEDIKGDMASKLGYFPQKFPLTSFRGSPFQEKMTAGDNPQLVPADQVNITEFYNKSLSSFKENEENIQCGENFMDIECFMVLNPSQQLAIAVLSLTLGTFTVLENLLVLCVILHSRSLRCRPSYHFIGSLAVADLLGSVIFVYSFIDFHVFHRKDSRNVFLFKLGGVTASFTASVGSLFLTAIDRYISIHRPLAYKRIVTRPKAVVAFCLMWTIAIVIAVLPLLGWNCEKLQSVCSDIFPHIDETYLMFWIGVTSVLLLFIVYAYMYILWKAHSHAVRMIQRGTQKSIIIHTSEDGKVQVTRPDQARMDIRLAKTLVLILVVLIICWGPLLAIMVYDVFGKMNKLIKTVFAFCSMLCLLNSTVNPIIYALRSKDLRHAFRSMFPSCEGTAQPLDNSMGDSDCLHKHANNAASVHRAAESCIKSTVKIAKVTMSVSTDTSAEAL
Text: (§1) Next the selectivity of hemopressin for CB1 receptors was examined using antibodies sensitive to the conformations of mu and delta opiod receptors, alpha-2A and beta-2 adrenergic receptors, as well as type 1 and 2 Angiotensin II receptors.

2A neural cells = assay: growth of neurites in 2A neural cells; assay type: cell-based; settings: FIG. 3D; for basal growth of neurites: substance alone
[2] = biological target: T2, alpha-2A adrenergic receptor (Homo sapiens, UniProt P08913); assay: recognition by conformation-sensitive receptor antibody; assay type: biochemical
T2 sequence (P08913 1-465): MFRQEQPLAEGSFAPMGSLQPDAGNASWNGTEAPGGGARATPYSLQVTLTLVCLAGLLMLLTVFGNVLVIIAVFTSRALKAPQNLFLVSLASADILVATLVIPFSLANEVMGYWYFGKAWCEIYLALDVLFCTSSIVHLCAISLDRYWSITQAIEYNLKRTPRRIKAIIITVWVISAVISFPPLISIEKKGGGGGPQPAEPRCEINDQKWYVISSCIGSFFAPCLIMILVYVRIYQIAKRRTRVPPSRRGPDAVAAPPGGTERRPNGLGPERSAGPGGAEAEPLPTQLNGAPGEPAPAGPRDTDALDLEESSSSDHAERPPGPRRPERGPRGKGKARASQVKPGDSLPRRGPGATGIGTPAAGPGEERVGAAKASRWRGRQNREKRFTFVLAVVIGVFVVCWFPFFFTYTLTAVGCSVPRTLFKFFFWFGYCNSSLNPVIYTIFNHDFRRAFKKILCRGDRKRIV
Text: as §1, with “receptors. In the following table, it is possible to identify the specificity of the peptide hemopressin for the CB1 receptor. […] The following data presents the percentage of activity as compared to the control group: […]” for “receptors.”

[3] = biological target: beta-2 adrenergic receptor (Homo sapiens, UniProt P07550); assay: as above; assay type: biochemical
beta-2 adrenergic receptor, sequence (P07550 whole entry): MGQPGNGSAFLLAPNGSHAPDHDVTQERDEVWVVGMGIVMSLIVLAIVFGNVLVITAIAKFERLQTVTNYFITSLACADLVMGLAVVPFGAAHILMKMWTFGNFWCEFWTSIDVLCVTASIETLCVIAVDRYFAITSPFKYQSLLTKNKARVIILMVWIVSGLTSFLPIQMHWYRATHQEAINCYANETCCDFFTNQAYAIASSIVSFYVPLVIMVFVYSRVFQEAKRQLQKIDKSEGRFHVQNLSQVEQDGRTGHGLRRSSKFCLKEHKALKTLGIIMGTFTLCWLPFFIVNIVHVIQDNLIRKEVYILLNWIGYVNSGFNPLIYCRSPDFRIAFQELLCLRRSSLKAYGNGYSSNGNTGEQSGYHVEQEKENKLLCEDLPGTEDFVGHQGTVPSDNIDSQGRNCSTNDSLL
Text: as §1, with “receptors. In the following table, it is possible to identify the specificity of the peptide hemopressin for the CB1 receptor. […] The following data presents the percentage of activity as compared to the control group: […]” for “receptors.”

delta opioid receptor = delta opioid receptor (Homo sapiens, UniProt P41143); assay: as above; assay type: biochemical
delta opioid receptor, sequence (P41143 whole entry): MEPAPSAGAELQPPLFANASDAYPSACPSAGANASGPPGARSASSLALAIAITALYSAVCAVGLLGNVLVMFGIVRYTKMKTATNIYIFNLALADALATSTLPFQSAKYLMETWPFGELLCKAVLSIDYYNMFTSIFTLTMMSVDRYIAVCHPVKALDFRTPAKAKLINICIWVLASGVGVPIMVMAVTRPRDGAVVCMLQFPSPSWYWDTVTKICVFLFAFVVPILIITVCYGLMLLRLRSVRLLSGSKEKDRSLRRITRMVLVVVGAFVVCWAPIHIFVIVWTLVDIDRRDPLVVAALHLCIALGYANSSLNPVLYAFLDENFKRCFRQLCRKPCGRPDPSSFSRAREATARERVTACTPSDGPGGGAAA
Text: as §1, with “receptors. In the following table, it is possible to identify the specificity of the peptide hemopressin for the CB1 receptor. […] The following data presents the percentage of activity as compared to the control group: […]” for “receptors.”

mu opioid receptor = mu opioid receptor (Homo sapiens, UniProt P35372); assay: as above; assay type: biochemical
mu opioid receptor, sequence (P35372 whole entry): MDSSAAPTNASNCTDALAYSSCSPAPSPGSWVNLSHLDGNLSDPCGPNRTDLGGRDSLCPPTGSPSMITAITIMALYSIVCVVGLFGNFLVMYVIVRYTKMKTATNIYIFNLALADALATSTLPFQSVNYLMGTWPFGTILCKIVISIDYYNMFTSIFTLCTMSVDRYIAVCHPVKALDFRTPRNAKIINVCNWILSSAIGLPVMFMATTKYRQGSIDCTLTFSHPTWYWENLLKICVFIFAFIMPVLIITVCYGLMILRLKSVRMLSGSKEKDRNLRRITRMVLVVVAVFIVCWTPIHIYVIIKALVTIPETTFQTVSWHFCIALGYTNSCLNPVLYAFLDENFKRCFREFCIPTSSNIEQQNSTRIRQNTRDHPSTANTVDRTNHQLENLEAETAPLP
Text: as §1, with “receptors. In the following table, it is possible to identify the specificity of the peptide hemopressin for the CB1 receptor. […] The following data presents the percentage of activity as compared to the control group: […]” for “receptors.”

[4] = biological target: T3, type 1 Angiotensin II receptor (AT1) (Homo sapiens, UniProt P30556); assay: as above; assay type: biochemical
T3 sequence (P30556 1-359): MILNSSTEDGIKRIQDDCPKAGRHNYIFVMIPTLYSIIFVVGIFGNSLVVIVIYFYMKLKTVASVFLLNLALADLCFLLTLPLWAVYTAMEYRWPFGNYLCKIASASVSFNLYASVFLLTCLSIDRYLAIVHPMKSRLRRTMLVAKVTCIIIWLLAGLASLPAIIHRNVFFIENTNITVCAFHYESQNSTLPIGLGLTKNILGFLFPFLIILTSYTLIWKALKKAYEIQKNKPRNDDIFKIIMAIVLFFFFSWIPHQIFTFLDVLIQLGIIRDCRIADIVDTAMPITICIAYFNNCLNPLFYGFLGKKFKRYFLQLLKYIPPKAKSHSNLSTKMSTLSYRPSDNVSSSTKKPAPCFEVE
Text: as §1, with “receptors. In the following table, it is possible to identify the specificity of the peptide hemopressin for the CB1 receptor. […] The following data presents the percentage of activity as compared to the control group: […]” for “receptors.”

[5] = biological target: T4, type 2 Angiotensin II receptor (AT2) (Homo sapiens, UniProt P50052); assay: as above; assay type: biochemical
T4 sequence (P50052 1-363): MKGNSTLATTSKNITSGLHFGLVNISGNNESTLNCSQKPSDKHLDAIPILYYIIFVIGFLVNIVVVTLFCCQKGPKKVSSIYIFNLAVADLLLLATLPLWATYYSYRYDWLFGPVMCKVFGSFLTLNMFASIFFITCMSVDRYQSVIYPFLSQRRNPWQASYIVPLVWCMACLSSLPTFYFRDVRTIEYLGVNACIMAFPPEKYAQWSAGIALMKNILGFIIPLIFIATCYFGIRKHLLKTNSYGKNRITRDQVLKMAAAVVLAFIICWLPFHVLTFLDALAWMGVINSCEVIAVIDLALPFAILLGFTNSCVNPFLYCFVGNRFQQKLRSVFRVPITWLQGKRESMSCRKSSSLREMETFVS
Text: as §1, with “receptors. In the following table, it is possible to identify the specificity of the peptide hemopressin for the CB1 receptor. […] The following data presents the percentage of activity as compared to the control group: […]” for “receptors.”

CB1 receptor [6] = biological target: T1, CB1 receptor; assay: displacement of the ligand rimonabant from CB1 receptors; assay type: binding; settings: FIG. 2A
CB1 receptor [7] = biological target: T1, CB1 receptor; assay type: biochemical
Method: A test was then designed, the results of which are illustrated in FIG. 2B, to determine if hemopressin could block the signaling of CB1 receptor. […] Finally, a test was designed to measure whether hemopressin is capable of blocking the increase of levels of phosphorylated ERK1 and ERK2.
Hemopressin was also determined to not only act as an antagonist but as an inverse agonist of CB1 receptors. This was further explored by studying the binding of GTPgammaS, adenylate cyclase activity and MAP kinase phopshorylation. […] This can clearly be seen in FIGS. 3A-C.

male Wistar rats = assay: fat content and body weight in male Wistar rats on 63-day diet; assay type: in vivo, rat; settings: once a day for three days; for Body Weight (% of Control) / Periepididymal Adipose Tissue Weight / Retroperitoneal Adipose Tissue Weight / Visceral Adipose Tissue Weight: 63-day ad libitum diet
rats [8] = assay: body weight and fat content after oral administration; assay type: in vivo, rat; settings: for Body Weight (% of Control) / Periepididymal Adipose Tissue Weight / Retroperitoneal Adipose Tissue Weight / Visceral Adipose Tissue Weight: rats
rats [9] = assay: standard swimming test for depression; assay type: in vivo, rat; settings: hemopressin 1 mg/Kg, FIG. 5
diet induced obese rats = assay: insulin sensitivity in diet induced obese rats; assay type: in vivo, rat; settings: 50 micrograms/Kg and 1 mg/Kg hemopressin, FIG. 6
CB1 receptor [10] = biological target: T1, CB1 receptor; settings: literature; cited from earlier work
[11] = cited from earlier work
CB1 receptor [12] = biological target: T1, CB1 receptor; settings: in vitro, Dodd et al.; cited from earlier work
rats and mice = settings: Dodd et al., cited from earlier work
male Zucker rats = assay: fat content in male Zucker rats after intraperitoneal administration; assay type: in vivo, rat; settings: intraperitoneal 50 micrograms/Kg once a day for three days
Method: Experiments were also conducted on genetically obese and diet-induced rats of another species. Male Zucker rats were maintained on a 12 hour light/dark cycle. The rats were divided into two groups that receive once a day for three days either intraperiotoneal administration of 50 micrograms/Kg body weight of HPW2 or saline.

CCCCCCC(C)(C)c1cc(O)c2c(c1)OC(C)(C)[C@@H]1CC=C(CO)C[C@@H]21 [HU-210, reference compound]
recognition of a CB1 specific antibody (CB1 receptor [1]): increase | basal growth of neurites (2A neural cells): induction of the growth of neurites

CC(C)C[C@H](NC(=O)[C@H](Cc1ccccc1)NC(=O)[C@H](CCCCN)NC(=O)[C@H](Cc1ccccc1)NC(=O)[C@H](CC(N)=O)NC(=O)[C@@H](NC(=O)C1CCCN1)C(C)C)C(=O)N[C@@H](CO)C(=O)N[C@@H](Cc1cnc[nH]1)C(=O)O (some centres unmarked) [hemopressin]
block of the HU-210 induced increase in the recognition of the antibody (CB1 receptor [1]): significantly blocked | percentage of activity as compared to the control group (CB1 receptor [1]; agonist and HP together): 102.06 ± 5.91% | percentage of activity as compared to the control group (CB1 receptor [1]; hemopressin alone): 72.30 ± 3.32% | recognition of a CB1 specific antibody (CB1 receptor [1]; substance alone, FIG. 1A/1B): decrease the recognition of a CB1 specific antibody | selectivity for CB1 receptors (CB1 receptor [1]; versus mu and delta opioid, alpha-2A, beta-2, AT1, AT2 receptors): highly selective for CB1 receptors | percentage of activity as compared to the control group ([2]; agonist and HP together): 130.05 ± 7.06% | percentage of activity as compared to the control group ([2]; hemopressin alone): 102.72 ± 2.00% | percentage of activity as compared to the control group ([3]; agonist and HP together): 157.40 ± 8.15% | percentage of activity as compared to the control group ([3]; hemopressin alone): 103.85 ± 9.29% | percentage of activity as compared to the control group (delta opioid receptor; agonist and HP together): 131.08 ± 3.35% | percentage of activity as compared to the control group (delta opioid receptor; hemopressin alone): 100.65 ± 4.29% | percentage of activity as compared to the control group (mu opioid receptor; agonist and HP together): 141.09 ± 6.46% | percentage of activity as compared to the control group (mu opioid receptor; hemopressin alone): 105.62 ± 1.09% | percentage of activity as compared to the control group ([4]; agonist and HP together): 140.01 ± 1.21% | percentage of activity as compared to the control group ([4]; hemopressin alone): 109.65 ± 1.31% | percentage of activity as compared to the control group ([5]; agonist and HP together): 137.10 ± 1.91% | percentage of activity as compared to the control group ([5]; hemopressin alone): 99.65 ± 4.71% | displacement of rimonabant from CB1 receptors (CB1 receptor [6]): capable of displacing rimonabant from CB1 receptors | block of the increase of GTPgammaS (CB1 receptor [7]): capable of blocking the increase of GTPgammaS | block of the increase of levels of phosphorylated ERK1 and ERK2 (CB1 receptor [7]): behave similarly to rimonabant | block of decreases in cAMP levels (CB1 receptor [7]; against agonists, FIG. 2C): block decreases in cAMP levels with efficiency similar to that of rimonabant | basal signaling, binding of GTPgammaS (CB1 receptor [7]; without agonist, FIG. 3A): causes decreases in signaling below the basal levels | basal signaling, adenylate cyclase activity (CB1 receptor [7]; without agonist, FIG. 3B): causes decreases in signaling below the basal levels | basal signaling, MAP kinase phosphorylation (CB1 receptor [7]; without agonist, FIG. 3C): causes decreases in signaling below the basal levels | growth of neurites as measured against agonists (2A neural cells): efficiently blocks the growth of neurites | basal growth of neurites (2A neural cells): capable of decreasing the basal growth of neurites | Body Weight (% of Control) (male Wistar rats): 98.62 ± 13.33 % of Control | Periepididymal Adipose Tissue Weight (male Wistar rats): 4.77 ± 1.06 g | Retroperitoneal Adipose Tissue Weight (male Wistar rats): 6.12 ± 2.09 g | Visceral Adipose Tissue Weight (male Wistar rats): 2.77 ± 0.58 g | periepididymal and visceral fat content compared to saline control (male Wistar rats): significantly reduced periepididymal and visceral fat content | retroperitoneal fat content (rats [8]): significantly reduced by hemopressin only | total body weight and periepididymal fat content (rats [8]): significantly reduce | Body Weight (% of Control) (rats [8]): 96.89 ± 1.25 % of Control | Periepididymal Adipose Tissue Weight (rats [8]): 7.16 ± 1.36 g | Retroperitoneal Adipose Tissue Weight (rats [8]): 6.26 ± 1.62 g | Visceral Adipose Tissue Weight (rats [8]): 4.31 ± 0.61 g | symptoms of depression in standard swimming test (rats [9]): showed no such symptoms | insulin sensitivity (diet induced obese rats): significantly improved insulin sensitivity | action at the CB1 receptor (CB1 receptor [10]): CB1 receptor inverse agonist | antinociceptive effects ([11]; Dale et al., literature): nonopioid antinociceptive effects | treatment of hyperalgesia ([11]; administered locally or systemically, Heimann et al.): effective in treating hyperalgesia | CB1 agonist-induced internalization of the CB1 receptor (CB1 receptor [12]): antagonize CB1 agonist-induced internalization of the CB1 receptor in vitro | food intake (rats and mice; administered centrally): induce hypophagia in vivo when administered centrally | food intake (rats and mice; administered systemically): induce hypophagia in vivo when administered systemically

PVNFKWLSH [HPW2]
Body Weight (% of Control) (male Wistar rats): 95.47 ± 15.44 % of Control | Periepididymal Adipose Tissue Weight (male Wistar rats): 4.01 ± 0.33 g | Retroperitoneal Adipose Tissue Weight (male Wistar rats): 5.37 ± 1.11 g | Visceral Adipose Tissue Weight (male Wistar rats): 2.63 ± 0.94 g | periepididymal and visceral fat content compared to saline control (male Wistar rats): significantly reduced periepididymal and visceral fat content | retroperitoneal fat content (male Zucker rats): significant reduction in retroperitoneal fat content | total body weight and periepididymal fat content (rats [8]): significantly reduce | Body Weight (% of Control) (rats [8]): 96.71 ± 2.03 % of Control | Periepididymal Adipose Tissue Weight (rats [8]): 7.32 ± 1.22 g | Retroperitoneal Adipose Tissue Weight (rats [8]): 7.19 ± 1.50 g | Visceral Adipose Tissue Weight (rats [8]): 4.28 ± 0.59 g | insulin sensitivity (diet induced obese rats): significantly improved insulin sensitivity
